Legend:
Assay type in all cases: in vivo
Conditions in all cases: foliar, compared to untreated control leaf disks, read-out: disease control
[1] = tested on: Puccinia recondita f. sp. tritici; test: Puccinia recondita f. sp. tritici / wheat / leaf disc curative (brown rust)
Protocol: Puccinia recondita f. sp. tritici/Wheat/Leaf Disc Curative (Brown Rust) Wheat leaf segments cv. Kanzler are placed on agar in multiwell plates (24-well format). The leaf segments are inoculated with a spore suspension of the fungus. Plates were stored in darkness at 19° C. and 75% rh. The formulated test compound diluted in water was applied 1 day after inoculation.

Pyrenophora teres = Pyrenophora teres / barley / leaf disc preventative (net blotch)
Text: Pyrenophora teres/Barley/Leaf Disc Preventative (Net Blotch) Barley leaf segments cv. Hasso were placed on agar in a multiwell plate (24-well format) and sprayed with the formulated test compound diluted in water. The leaf segments were inoculated with a spore suspension of the fungus 2 days after application.

[2] = tested on: Puccinia recondita f. sp. tritici; test: Puccinia recondita f. sp. tritici / wheat / leaf disc preventative (brown rust)
Text: Puccinia recondita f. sp. tritici/Wheat/Leaf Disc Preventative (Brown Rust) Wheat leaf segments cv. Kanzler were placed on agar in multiwell plates (24-well format) and sprayed with the formulated test compound diluted in water. The leaf disks were inoculated with a spore suspension of the fungus 1 day after application.

[3] = tested on: Blumeria graminis f. sp. tritici (Erysiphe graminis f. sp. tritici); test: Blumeria graminis f. sp. tritici / wheat / leaf disc preventative (powdery mildew on wheat)
How it was run: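 Preventative leaf-disc test: compound (200 ppm) was sprayed onto cv. Kanzler wheat segments, which were dusted with conidia from infected plants 1 day after application. After incubation at 20° C and 60% rh, disease control relative to untreated segments was rated 6-8 days after application.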

Measured: pest or weed control at 200 ppm

CCN(C)/C=N/c1cc(Br)c(OC2CCc3ccccc3C2)nc1C (stereo not shown) [Q.110]
≥ 50%: [1] | Pyrenophora teres | [2] | [3]

CCN(C)/C=N/c1cc(Br)c(OCc2ccc(OC)nc2)nc1C [Q.115]
≥ 50%: [1] | Pyrenophora teres | [2] | [3]

CCN(C)/C=N/c1cc(Br)c(OCCc2cccc(F)c2)nc1C [Q.116]
≥ 50%: [1] | Pyrenophora teres | [2] | [3]

CCN(C)/C=N/c1cc(Br)c(OC(C)c2ccncc2)nc1C (stereo not shown) [Q.117]
≥ 50%: [1] | Pyrenophora teres | [2] | [3]

CCN(C)/C=N/c1cc(Br)c(OC2CCC(Cc3ccccc3)CC2)nc1C (stereo not shown) [Q.119]
≥ 50%: [1] | Pyrenophora teres | [2] | [3]

C=C(C)CCCOc1nc(C)c(/N=C/N(C)CC)cc1Br [Q.120]
≥ 50%: [1] | Pyrenophora teres | [2] | [3]

CCN(C)/C=N/c1cc(Br)c(OCc2ccc(Cc3ccccc3)cc2)nc1C [Q.121]
≥ 50%: [1] | Pyrenophora teres | [2] | [3]

CCN(C)/C=N/c1cc(Br)c(OC2CCC(=C(C)C)CC2)nc1C (stereo not shown) [Q.122]
≥ 50%: [1] | Pyrenophora teres | [2] | [3]

CCN(C)/C=N/c1cc(Br)c(OCc2snc(-c3ccc(F)cc3)c2Cl)nc1C [Q.124]
≥ 50%: [1] | Pyrenophora teres | [2] | [3]

CCN(C)/C=N/c1cc(Br)c(OCCCc2ccc(F)cc2)nc1C [Q.131]
≥ 50%: [1] | Pyrenophora teres | [2] | [3]

C/C=C(\C)CCCOc1nc(C)c(/N=C/N(C)CC)cc1Br [Q.133]
≥ 50%: [1] | Pyrenophora teres | [2] | [3]

CCN(C)/C=N/c1cc(Br)c(OCc2ccc(C(F)(F)F)nc2)nc1C [Q.136]
≥ 50%: [1] | Pyrenophora teres | [2] | [3]

CCN(C)/C=N/c1cc(Br)c(OC2CCC(C)CC2)nc1C (stereo not shown) [Q.141]
≥ 50%: [1] | Pyrenophora teres | [2] | [3]

CCN(C)/C=N/c1cc(Br)c(OCc2ccns2)nc1C [Q.143]
≥ 50%: [1] | Pyrenophora teres | [2] | [3]

CCN(C)/C=N/c1cc(Br)c(OC2Cc3ccc(OCc4ccns4)cc3C2)nc1C (stereo not shown) [Q.144]
≥ 50%: [1] | Pyrenophora teres | [2] | [3]

CCCC(C)Oc1nc(C)c(/N=C/N(C)CC)cc1Br (stereo not shown) [Q.146]
≥ 50%: [1] | Pyrenophora teres | [2] | [3]

CCN(C)/C=N/c1cc(Br)c(OCCCCc2ccccc2)nc1C [Q.148]
≥ 50%: [1] | Pyrenophora teres | [2] | [3]

CCN(C)/C=N/c1cc(Br)c(OCc2cccc(C#N)c2)nc1C [Q.155]
≥ 50%: [1] | Pyrenophora teres | [2] | [3]

CCN(C)/C=N/c1cc(Br)c(OC2CCSCC2)nc1C [Q.158]
≥ 50%: [1] | Pyrenophora teres | [2] | [3]

CCN(C)/C=N/c1cc(Br)c(OC2CCN(C(C)=O)CC2)nc1C [Q.160]
≥ 50%: [1] | Pyrenophora teres | [2] | [3]

CCN(C)/C=N/c1cc(Br)c(OC2CCS(=O)(=O)CC2)nc1C [Q.161]
≥ 50%: [1] | Pyrenophora teres | [2] | [3]

CCN(C)/C=N/c1cc(Br)c(OC2CCN(C(=O)C(C)C)CC2)nc1C [Q.162]
≥ 50%: [1] | Pyrenophora teres | [2] | [3]

CCN(C)/C=N/c1cc(Br)c(OC2CCN(S(C)(=O)=O)CC2)nc1C [Q.163]
≥ 50%: [1] | Pyrenophora teres | [2] | [3]

CCN(C)/C=N/c1cc(Br)c(OC2CCN(S(=O)(=O)N(C)C)CC2)nc1C [Q.164]
≥ 50%: [1] | Pyrenophora teres | [2] | [3]

CCN(C)/C=N/c1cc(Br)c(OC2CCC(OC)CC2)nc1C (stereo not shown) [Q.166]
≥ 50%: [1] | Pyrenophora teres | [2] | [3]

CCN(C)/C=N/c1cc(Br)c(OC2CCC(C)C2)nc1C (stereo not shown) [Q.167]
≥ 50%: [1] | Pyrenophora teres | [2] | [3]

CCN(C)/C=N/c1cc(Br)c(OC2Cc3ccc(OCc4ccccc4)cc3C2)nc1C (stereo not shown) [Q.168]
≥ 50%: [1] | Pyrenophora teres | [2] | [3]

CCN(C)/C=N/c1cc(Br)c(OCc2cccc(C(F)F)c2)nc1C [Q.170]
≥ 50%: [1] | Pyrenophora teres | [2] | [3]

CCN(C)/C=N/c1cc(Br)c(OCc2cccc(I)c2)nc1C [Q.174]
≥ 50%: [1] | Pyrenophora teres | [2] | [3]

CCN(C)/C=N/c1cc(Br)c(OCc2cccc(C)c2C)nc1C [Q.175]
≥ 50%: [1] | Pyrenophora teres | [2] | [3]

CCN(C)/C=N/c1cc(Br)c(OCc2cccc(F)c2)nc1C [Q.176]
≥ 50%: [1] | Pyrenophora teres | [2] | [3]

CCN(C)/C=N/c1cc(I)c(OC(C)c2cc(F)cc(F)c2)nc1C (stereo not shown) [Q.178]
≥ 50%: [1] | Pyrenophora teres | [2] | [3]

CCN(C)/C=N/c1cc(I)c(O[C@H]2CC[C@@H](C(C)C)CC2)nc1C [Q.180]
≥ 50%: [1] | Pyrenophora teres | [2] | [3]

CCN(C)/C=N/c1ccc(O[C@H]2CC[C@@H](C(C)C)CC2)nc1C [Q.183]
≥ 50%: [1] | Pyrenophora teres | [2] | [3]
